From US20180117042A1, “METHODS FOR TREATING RESPIRATORY SYNCYTIAL VIRUS INFECTION” (ALIOS BIOPHARMA, INC., priority 2016, published 2018)
Each block holds one compound with its values, some of them ahead of it.

Legend:
[1] = half-life of the triphosphate compound (B); settings: triphosphate formed inside the cell
RSV = settings: infants and young children with severe RSV LRTI; cited from earlier work
[2] = SAD/MAD study in pediatric patients hospitalized with RSV infection: safety; format: in vivo, human; settings: infants hospitalized with RSV, interim blinded results
Description: One hundred fifty eight otherwise healthy pediatric patients hospitalized with RSV infection were recruited in a randomized, double-blind, placebo-controlled, SAD (single ascending dose) and MAD (multiple ascending dose) study. The patients were randomized into nine SAD, MAD regimens. Subjects not given the placebo were administered lumicitabine or compound (A), a prodrug of the nucleoside analog AL-8112 (otherwise referenced herein as compound (C), the triphosphate of which is a potent inhibitor of the RSV polymerase. The cohort size and dose for the first SAD cohort was prespecified. The makeup of all other cohorts was determined by an Independent Data Monitoring Committee (IDMC) that regularly reviewed data. FIG. 2 provides the single and multiple doses used in the study as well as approximate numbers of subjects dosed. Safety and PK data were collected for 7 (SAD) and 28 (MAD) days post randomization. PK was analyzed using non-linear mixed effect modeling. Part 1 (single ascending dose): Patients received a single dose of 1 of 4 ascending doses of compound (A), (1.37 mg/kg, 4.1 mg/kg, 12 mg/kg and 25 mg/kg) or placebo. Patients received compound (A) for a 7-day consecutive period. Part 2 (multiple ascending dosage): Patients received a loading dosage followed by nine maintenance dosages, or placebo. Patients received compound (A) for a 5-day consecutive period. […]

[3] = tested on: RSV-A Memphis 37b challenge virus; test: human RSV challenge model in healthy adults, viral load in nasal washes; format: in vivo
Description: Healthy adults received one of the following dosing regimens or placebo over 5 days using the human RSV challenge model.
Patients were given an intranasal inoculation of RSV-A Memphis 37b challenge virus. Administration of compound (A), or a pharmaceutically acceptable salt thereof, began approximately 12 hours after confirmation of RSV infection as determined by the presence of RSV RNA in nasopharyngeal washes. The test compound was administered as an oral-liquid suspension, wherein the drug vehicle was methyl cellulose and sterile water. The placebo was the drug vehicle without the test compound. Second dosages were started 12 hours after administration of the first dosage, and the remaining second dosages were provided in approximate 12 hour intervals. Nasal washes were collected twice daily approximately 36 to 48 hours after RSV inoculation until Day 12. Viral load was detected and quantified from the aliquots of the nasal wash samples using tissue infectivity plaque assays and PCR. (See DeVincenzo, J. P., et al., Am. J. Respir. Crit. Care. Med. (2010) 182(10):1305-1314) Patients returned for two follow-up visits on Day 16 (±2 days) and Day 28 (±2 days) post-challenge inoculation.

[4] = SAD/MAD study in pediatric patients hospitalized with RSV infection: plasma PK with PK modeling; format: in vivo, human
Description: One hundred fifty eight otherwise healthy pediatric patients hospitalized with RSV infection were recruited in a randomized, double-blind, placebo-controlled, SAD (single ascending dose) and MAD (multiple ascending dose) study. The patients were randomized into nine SAD, MAD regimens. Subjects not given the placebo were administered lumicitabine or compound (A), a prodrug of the nucleoside analog AL-8112 (otherwise referenced herein as compound (C), the triphosphate of which is a potent inhibitor of the RSV polymerase. The cohort size and dose for the first SAD cohort was prespecified. The makeup of all other cohorts was determined by an Independent Data Monitoring Committee (IDMC) that regularly reviewed data. FIG. 2 provides the single and multiple doses used in the study as well as approximate numbers of subjects dosed. Safety and PK data were collected for 7 (SAD) and 28 (MAD) days post randomization. PK was analyzed using non-linear mixed effect modeling.
Part 1 (single ascending dose): Patients received a single dose of 1 of 4 ascending doses of compound (A), (1.37 mg/kg, 4.1 mg/kg, 12 mg/kg and 25 mg/kg) or placebo. Patients received compound (A) for a 7-day consecutive period.
Part 2 (multiple ascending dosage): Patients received a loading dosage followed by nine maintenance dosages, or placebo. Patients received compound (A) for a 5-day consecutive period. The maintenance dosages were administered twice daily. In the twice daily dosage regimen, the first maintenance dosage was given 8-18 hours after the loading dosage (dosage 1).
A PK model was developed integrating adult and pediatric data to aid calculation of PK parameters and project efficacious doses. For pediatric dose and exposure projections three age cohorts were used: 1-<2 months, 2-<6 month and 6-<12 months. Apparent clearance increased with dose, creatinine clearance and body weight (using allometric principles). Maturation functions were applied for age dependent changes in Carboxylesterase 1 abundance on bioavailability and kidney function on renal elimination. […]

- half-life [1]: ~17.6 h
Compound: Nc1ccn([C@@H]2O[C@](CCl)(COP(=O)(O)OP(=O)(O)OP(=O)(O)O)[C@@H](O)[C@H]2F)c(=O)n1 [Compound (B)]

Compound: NC(=O)c1ncn([C@@H]2O[C@H](CO)[C@@H](O)[C@H]2O)n1 [aerosolized ribavirin, ribavirin]
- clinical benefit of treatment (RSV): failed to impart any clinically significant benefits

- treatment discontinuation during the study ([3]; healthy adults, 5 days dosing): no patient discontinued treatment
Compound: CC(C)C(=O)OC[C@@]1(CCl)O[C@@H](n2ccc(N)nc2=O)[C@H](F)[C@@H]1OC(=O)C(C)C [compound (A), Lumicitabine]
- tolerability ([2]; multiple doses up to 60/40 mg/kg): well tolerated
- tolerability ([2]; single doses up to 25 mg/kg): well tolerated
- RSV viral load compared to the placebo ([3]; all regimens (750/150 mg, 750/500 mg, 375 mg), oral, 5 days, FIG. 1): marked reduction
- RSV RNA ([3]; at Day 12, all treated patients): undetectable
- RSV RNA ([3]; at Day 16 follow-up): undetectable
- RSV RNA ([3]; at Day 28 follow-up): undetectable
- laboratory abnormalities ([3]; healthy adults, 5 days dosing): no clinically significant laboratory abnormalities
- reduction of plaque forming units equivalents (PFUe/mL) ([3]; patients who received 750 mg on Day 1, within the first 24 hours): multi-log reduction

- AUC(0-t) ([4]; human, plasma, doses of 40/20 mg/kg and 60/40 mg/kg compound (A), actual concentrations with PK modeling (FIG. 3), read-out: plasma AUC0-24): 8000 to 20000 ng·h/mL
- accumulation ([4]; multiple dosing): no accumulation
- plasma exposures with increasing ALS-8176 doses (dose proportionality) ([4]; oral): less than dose proportional
Compound: Nc1ccn([C@@H]2O[C@@](CO)(CCl)[C@@H](O)[C@H]2F)c(=O)n1 [compound (C)]
